# Experimental data from BindingDB's records for doi:10.1021/jm011081s (The Institute of Cancer Research, 2002).
# Experiment: Growth inhibitory activity against mouse lymphoblastoid L1210TS cell line was determined as inhibition of thymidylate synthase
compound,measurement,value
"C#CCN(Cc1cc2c(=O)n(C)c(CN(CC)CC)nc2cc1Cl)c1ccc(C(=O)NCc2cccnc2)cc1 [4-[(7-Chloro-2-diethylaminomethyl-3-methyl-4-oxo-3,4-dihydro-quinazolin-6-ylmethyl)-prop-2-ynyl-amino]-N-pyridin-3-ylmethyl-benzamide]",IC50,> 50 µM
